PMC8155022 (Scientific Reports, 2021)

Columns and labels:
[1] = biological target: T1, AT1 (h) (Homo sapiens, UniProt P30556); experiment: Cerep panel; type: binding
T1 construct: purchased Cerep (receptors, ion channels, transporters); Eurofins Panlabs (kinases)
Method: (§1) A panel of 52 different receptors, ion channels and transporters was tested by Cerep, Inc. (Redmond, WA).

[2] = biological target: T2, CHK2(h) (Homo sapiens, UniProt O96017); experiment: Kinase panel; type: biochemical
T2 construct: purchased Cerep (receptors, ion channels, transporters); Eurofins Panlabs (kinases)
Method: (§2) Kinase selectivity was conducted by Eurofins Panlabs Inc (St Charles, MO).

[3] = biological target: T3, PKBα(h) (Homo sapiens, UniProt P31749); experiment: Kinase panel; type: biochemical
T3 construct: purchased Cerep (receptors, ion channels, transporters); Eurofins Panlabs (kinases)
T3 sequence (P31749 whole entry): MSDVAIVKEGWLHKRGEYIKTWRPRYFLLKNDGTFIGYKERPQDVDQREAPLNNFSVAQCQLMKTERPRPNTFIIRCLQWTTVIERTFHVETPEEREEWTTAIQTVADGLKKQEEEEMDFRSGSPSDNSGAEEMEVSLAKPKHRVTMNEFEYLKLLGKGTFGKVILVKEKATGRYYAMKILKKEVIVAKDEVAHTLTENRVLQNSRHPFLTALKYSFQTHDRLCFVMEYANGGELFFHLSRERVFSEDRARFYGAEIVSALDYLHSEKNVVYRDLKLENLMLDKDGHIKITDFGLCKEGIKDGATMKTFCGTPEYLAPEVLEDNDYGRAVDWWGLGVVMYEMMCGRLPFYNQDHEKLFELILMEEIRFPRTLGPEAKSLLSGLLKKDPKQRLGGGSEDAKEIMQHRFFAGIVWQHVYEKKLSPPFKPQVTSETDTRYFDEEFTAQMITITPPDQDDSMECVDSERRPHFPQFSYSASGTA
Method: as §2

[4] = biological target: T4, VIP1 (h) (VPAC1) (Homo sapiens, UniProt P32241); experiment: Cerep panel; type: binding
T4 construct: purchased Cerep (receptors, ion channels, transporters); Eurofins Panlabs (kinases)
T4 sequence (P32241 31-457): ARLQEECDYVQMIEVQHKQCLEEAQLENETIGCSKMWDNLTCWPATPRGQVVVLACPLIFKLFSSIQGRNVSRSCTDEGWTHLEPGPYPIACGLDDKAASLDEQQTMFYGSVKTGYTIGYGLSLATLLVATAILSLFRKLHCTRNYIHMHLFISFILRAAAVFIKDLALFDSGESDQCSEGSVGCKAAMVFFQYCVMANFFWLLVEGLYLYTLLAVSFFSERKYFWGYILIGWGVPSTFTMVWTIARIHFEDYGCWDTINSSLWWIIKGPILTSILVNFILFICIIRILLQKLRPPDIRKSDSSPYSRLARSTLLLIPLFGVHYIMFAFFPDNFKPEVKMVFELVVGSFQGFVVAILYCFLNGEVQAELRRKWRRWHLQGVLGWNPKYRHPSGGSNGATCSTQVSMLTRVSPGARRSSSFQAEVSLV
Method: as §1

[5] = plasma protein binding; type: in vitro ADME; conditions: human
[6] = biological target: T5, GR (Homo sapiens, UniProt P04150); experiment: nuclear receptor cellular GAL4 reporter assay; type: cell-based; conditions: agonist and antagonist mode; read-out: potency in agonist and antagonist mode
T5 construct: expressed in transfected cells

[7] = biological target: T6, CLK2(h) (Homo sapiens, UniProt P49760); experiment: Kinase panel; type: biochemical
T6 construct: purchased Cerep (receptors, ion channels, transporters); Eurofins Panlabs (kinases)
T6 sequence (P49760 whole entry): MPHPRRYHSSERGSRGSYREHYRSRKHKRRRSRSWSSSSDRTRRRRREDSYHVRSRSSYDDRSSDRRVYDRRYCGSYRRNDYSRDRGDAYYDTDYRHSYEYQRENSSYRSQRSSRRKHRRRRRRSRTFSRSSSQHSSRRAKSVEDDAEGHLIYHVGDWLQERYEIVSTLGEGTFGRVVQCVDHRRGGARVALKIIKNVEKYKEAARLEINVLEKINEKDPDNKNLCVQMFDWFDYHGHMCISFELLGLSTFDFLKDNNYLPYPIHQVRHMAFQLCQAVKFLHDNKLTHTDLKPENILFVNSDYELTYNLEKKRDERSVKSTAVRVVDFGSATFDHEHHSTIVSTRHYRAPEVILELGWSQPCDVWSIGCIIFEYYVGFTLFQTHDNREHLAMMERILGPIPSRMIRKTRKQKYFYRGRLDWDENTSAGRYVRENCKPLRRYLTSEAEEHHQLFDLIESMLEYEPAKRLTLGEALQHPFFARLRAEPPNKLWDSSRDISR
Method: as §2

[8] = biological target: T7, delta 2 (h) (DOP) (Homo sapiens, UniProt P41143); experiment: Cerep panel; type: binding
T7 construct: purchased Cerep (receptors, ion channels, transporters); Eurofins Panlabs (kinases)
T7 sequence (P41143 whole entry): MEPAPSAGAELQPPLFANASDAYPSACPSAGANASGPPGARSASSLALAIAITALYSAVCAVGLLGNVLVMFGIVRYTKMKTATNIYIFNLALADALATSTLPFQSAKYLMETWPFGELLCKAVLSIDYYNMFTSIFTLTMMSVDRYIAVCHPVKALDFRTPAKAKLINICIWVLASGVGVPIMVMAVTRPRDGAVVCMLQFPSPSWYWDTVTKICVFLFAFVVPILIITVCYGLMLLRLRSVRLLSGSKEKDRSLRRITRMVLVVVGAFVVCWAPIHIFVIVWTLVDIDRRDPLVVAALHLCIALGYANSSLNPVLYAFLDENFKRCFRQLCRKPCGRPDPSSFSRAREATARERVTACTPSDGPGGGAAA
Method: as §1

[9] = biological target: T8, RXRα (Homo sapiens, UniProt P19793); experiment: nuclear receptor cellular GAL4 reporter assay; type: cell-based; conditions: agonist and antagonist mode; read-out: potency in agonist and antagonist mode
T8 construct: expressed in transfected cells
T8 sequence (P19793 whole entry, the tested form may be a part): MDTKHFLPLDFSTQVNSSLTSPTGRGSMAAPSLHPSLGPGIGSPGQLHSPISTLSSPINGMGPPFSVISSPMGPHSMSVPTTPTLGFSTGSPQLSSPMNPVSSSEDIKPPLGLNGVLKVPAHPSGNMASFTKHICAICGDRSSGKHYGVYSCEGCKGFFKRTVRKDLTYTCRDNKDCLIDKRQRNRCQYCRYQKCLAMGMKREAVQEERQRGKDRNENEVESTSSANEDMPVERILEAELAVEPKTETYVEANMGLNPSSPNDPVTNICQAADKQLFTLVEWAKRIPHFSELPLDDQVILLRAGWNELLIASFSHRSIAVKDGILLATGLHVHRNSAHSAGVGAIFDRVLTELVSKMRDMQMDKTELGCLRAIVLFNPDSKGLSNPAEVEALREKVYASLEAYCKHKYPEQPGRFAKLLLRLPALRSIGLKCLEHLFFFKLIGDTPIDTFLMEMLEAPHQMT

[10] = tested on: healthy human volunteers; experiment: phase 1 single ascending dose study, safety
Method: Randomized, double-blind, placebo-controlled, single center study was designed by Janssen Immunology Clinical Development team and approved by Independent Ethics Committee/Institutional Review Board (Comité voor Medische Ethiek UZA, Wilrijkstraat 10, Edegem, 2650, Belgium). The study was conducted in Janssen’s Clinical Pharmacology Unit in Belgium from May 18th 2017 to April 5th 2018, according to Declaration of Helsinki principles and International Committee on Harmonisation Good Clinical Practice guidelines. […] Participants were healthy males and females of non-childbearing potential (postmenopausal or permanently sterile), aged 18 to 60 years inclusive, with a body mass index of 18 and 30 kg/m^2 and body weight of not less than 50 kg. Informed consent was obtained from all participants. No formal sample size and power calculations were performed. The number of participants chosen for this study was considered adequate to provide a preliminary safety assessment and PK assessment. The randomization was based on a computer-generated treatment randomization schedule prepared and balanced by using randomly permuted blocks. […] Participants and study site staff members including the Investigator were blinded to treatment allocation during entire study period. […] Cohorts 1 to 4 received single oral doses of 10, 30, 100 and 200 mg after an overnight fast, and cohort 5 were dosed 100 mg within 30 min of the start of a standard high fat meal. […] For all parts of the study, adverse events and concomitant medications were assessed and recorded from screening through follow-up (day 14–21 post-dose). The following safety measures were assessed at various time points during the study: medical history, physical examination, neurologic examination, electrocardiogram (12-lead ECG, or continuous telemetry), and vital signs (blood pressure, heart rate, respiratory rate, and temperature). […] This was a Phase 1 first-in-human study with limited sample size, the data generated was descriptive in nature, and no formal statistical hypothesis testing was planned. Although there was no formal interim analysis, assessments of PK and PD samples by cohort and safety assessments were conducted and reviewed during the study to plan dose-escalation and future development.

[11] = biological target: T9, Pim-2(h) (Homo sapiens, UniProt Q9P1W9); experiment: Kinase panel; type: biochemical
T9 construct: purchased Cerep (receptors, ion channels, transporters); Eurofins Panlabs (kinases)
T9 sequence (Q9P1W9 whole entry): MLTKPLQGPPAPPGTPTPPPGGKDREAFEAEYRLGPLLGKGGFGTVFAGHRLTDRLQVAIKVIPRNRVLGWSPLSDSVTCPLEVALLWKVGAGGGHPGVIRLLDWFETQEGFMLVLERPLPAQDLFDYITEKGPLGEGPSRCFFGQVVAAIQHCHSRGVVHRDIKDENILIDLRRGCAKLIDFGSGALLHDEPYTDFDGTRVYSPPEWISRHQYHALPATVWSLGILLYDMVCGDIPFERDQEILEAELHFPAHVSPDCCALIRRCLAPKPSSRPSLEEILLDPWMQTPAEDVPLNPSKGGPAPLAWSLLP
Method: as §2

[12] = biological target: T10, kappa (KOP) (Rattus norvegicus, UniProt P34975); experiment: Cerep panel; type: binding
T10 construct: purchased Cerep (receptors, ion channels, transporters); Eurofins Panlabs (kinases)
T10 sequence (P34975 whole entry): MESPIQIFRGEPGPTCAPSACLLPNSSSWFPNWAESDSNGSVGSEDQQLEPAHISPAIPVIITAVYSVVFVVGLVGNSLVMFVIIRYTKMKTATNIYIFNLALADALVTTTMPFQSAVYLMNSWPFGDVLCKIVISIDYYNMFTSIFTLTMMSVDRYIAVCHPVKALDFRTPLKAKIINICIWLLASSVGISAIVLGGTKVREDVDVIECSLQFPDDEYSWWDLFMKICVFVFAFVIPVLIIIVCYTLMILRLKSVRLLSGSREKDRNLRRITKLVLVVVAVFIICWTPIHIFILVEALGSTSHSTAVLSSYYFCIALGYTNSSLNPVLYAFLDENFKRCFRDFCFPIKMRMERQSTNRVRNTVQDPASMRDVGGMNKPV
Method: as §1

[13] = biological target: ERRγ (Homo sapiens, UniProt P62508); experiment: biochemical TR-FRET assay; conditions: agonist and antagonist mode; read-out: potency in agonist and antagonist mode
[14] = biological target: T11, MAPK1(h) (Homo sapiens, UniProt P27361); experiment: Kinase panel; type: biochemical
T11 construct: purchased Cerep (receptors, ion channels, transporters); Eurofins Panlabs (kinases)
T11 sequence (P27361 whole entry): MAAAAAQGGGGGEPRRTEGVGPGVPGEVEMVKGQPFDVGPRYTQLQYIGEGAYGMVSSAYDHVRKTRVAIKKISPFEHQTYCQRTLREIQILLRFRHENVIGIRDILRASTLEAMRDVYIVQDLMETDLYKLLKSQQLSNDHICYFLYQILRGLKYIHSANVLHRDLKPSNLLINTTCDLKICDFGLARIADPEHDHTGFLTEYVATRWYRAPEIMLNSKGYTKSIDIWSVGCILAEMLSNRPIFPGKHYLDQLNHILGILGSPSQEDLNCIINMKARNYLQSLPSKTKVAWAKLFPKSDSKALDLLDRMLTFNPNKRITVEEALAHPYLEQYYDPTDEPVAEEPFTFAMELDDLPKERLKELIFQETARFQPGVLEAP
Method: as §2

[15] = biological target: T12, Y1 (h) (Homo sapiens, UniProt P25929); experiment: Cerep panel; type: binding
T12 construct: purchased Cerep (receptors, ion channels, transporters); Eurofins Panlabs (kinases)
T12 sequence (P25929 whole entry): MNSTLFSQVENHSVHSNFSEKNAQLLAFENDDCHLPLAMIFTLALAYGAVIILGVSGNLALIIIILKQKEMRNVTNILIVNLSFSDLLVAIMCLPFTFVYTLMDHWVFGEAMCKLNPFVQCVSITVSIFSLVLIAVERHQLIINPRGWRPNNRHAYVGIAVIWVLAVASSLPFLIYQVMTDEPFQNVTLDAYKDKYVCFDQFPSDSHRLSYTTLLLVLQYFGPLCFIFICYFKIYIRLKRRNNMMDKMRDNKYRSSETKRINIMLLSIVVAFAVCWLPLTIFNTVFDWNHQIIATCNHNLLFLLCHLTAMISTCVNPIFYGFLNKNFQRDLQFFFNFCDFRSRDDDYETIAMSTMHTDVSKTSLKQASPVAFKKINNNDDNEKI
Method: as §1

[16] = biological target: T13, CHK1(h) (Homo sapiens, UniProt O14757); experiment: Kinase panel; type: biochemical
T13 construct: purchased Cerep (receptors, ion channels, transporters); Eurofins Panlabs (kinases)
T13 sequence (O14757 whole entry): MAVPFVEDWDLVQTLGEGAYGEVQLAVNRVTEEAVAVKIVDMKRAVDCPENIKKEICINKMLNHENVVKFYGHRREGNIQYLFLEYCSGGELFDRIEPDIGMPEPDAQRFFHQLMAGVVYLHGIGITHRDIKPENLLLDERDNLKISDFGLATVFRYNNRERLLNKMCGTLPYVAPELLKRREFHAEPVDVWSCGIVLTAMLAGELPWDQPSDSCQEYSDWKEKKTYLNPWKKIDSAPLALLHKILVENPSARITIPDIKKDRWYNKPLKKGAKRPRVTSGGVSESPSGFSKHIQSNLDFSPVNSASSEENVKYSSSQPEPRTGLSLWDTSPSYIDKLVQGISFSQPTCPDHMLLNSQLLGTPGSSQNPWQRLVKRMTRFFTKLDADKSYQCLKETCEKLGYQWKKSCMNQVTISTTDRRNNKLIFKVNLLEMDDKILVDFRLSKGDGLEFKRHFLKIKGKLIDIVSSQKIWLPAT
Method: as §2

[17] = biological target: T14, GAL2 (h) (Homo sapiens, UniProt O43603); experiment: Cerep panel; type: binding
T14 construct: purchased Cerep (receptors, ion channels, transporters); Eurofins Panlabs (kinases)
T14 sequence (O43603 whole entry): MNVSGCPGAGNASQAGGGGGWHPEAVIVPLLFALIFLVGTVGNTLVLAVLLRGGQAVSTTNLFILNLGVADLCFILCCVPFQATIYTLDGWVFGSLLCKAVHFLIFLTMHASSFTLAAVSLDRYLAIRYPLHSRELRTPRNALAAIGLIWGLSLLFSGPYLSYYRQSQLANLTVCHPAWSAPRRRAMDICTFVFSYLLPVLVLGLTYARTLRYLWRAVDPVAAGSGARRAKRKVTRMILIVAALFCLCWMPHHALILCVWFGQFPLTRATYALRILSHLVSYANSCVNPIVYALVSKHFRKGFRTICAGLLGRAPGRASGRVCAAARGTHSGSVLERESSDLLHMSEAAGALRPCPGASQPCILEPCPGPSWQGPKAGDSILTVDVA
Method: as §1

[18] = 100 mg (fasted) n = 9, single oral dose
[19] = 100 mg (fed) n = 9, single oral dose

T1 sequence (P30556 whole entry): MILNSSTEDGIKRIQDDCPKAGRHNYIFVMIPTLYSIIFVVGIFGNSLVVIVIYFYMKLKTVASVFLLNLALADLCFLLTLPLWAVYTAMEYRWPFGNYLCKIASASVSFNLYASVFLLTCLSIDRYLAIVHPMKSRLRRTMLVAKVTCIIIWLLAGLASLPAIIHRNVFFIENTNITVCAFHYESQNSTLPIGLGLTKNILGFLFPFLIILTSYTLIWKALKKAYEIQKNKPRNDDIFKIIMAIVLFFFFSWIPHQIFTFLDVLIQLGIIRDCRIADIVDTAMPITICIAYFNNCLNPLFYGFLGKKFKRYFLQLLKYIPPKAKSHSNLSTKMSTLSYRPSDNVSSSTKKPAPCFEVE

CC1CCCN1C(=O)c1nc(C(=O)NCC(C)(C)O)sc1-c1ccc(C(O)(C(F)(F)F)C(F)(F)F)c(Cl)c1Cl (stereo not drawn) [JNJ-61803534]
inhibition at 1 µM [1]: < 10%
inhibition at 10 µM [1]: < 10%
activity at 1 µM [2]: 107%
activity at 10 µM [2]: 111%
activity at 1 µM [3]: 97%
activity at 10 µM [3]: 95%
inhibition at 1 µM [4]: < 10%
inhibition at 10 µM [4]: < 10%
fraction unbound [5]: 0.011
IC50 [6]: > 1500 nM
activity at 1 µM [7]: 108%
activity at 10 µM [7]: 99%
inhibition at 1 µM [8]: < 10%
inhibition at 10 µM [8]: < 10%
IC50 [9]: > 1500 nM
Aphthous ulcer, treatment-emergent adverse events ([10]; 10 mg n = 6, single oral dose): 0
Back pain, treatment-emergent adverse events ([10]; 10 mg n = 6, single oral dose): 1
Diarrhea, treatment-emergent adverse events ([10]; 10 mg n = 6, single oral dose): 0
Headache, treatment-emergent adverse events ([10]; 10 mg n = 6, single oral dose): 0
Hypercholesterolaemia, treatment-emergent adverse events ([10]; 10 mg n = 6, single oral dose): 0
Medical device site reaction, treatment-emergent adverse events ([10]; 10 mg n = 6, single oral dose): 0
Musculoskeletal discomfort, treatment-emergent adverse events ([10]; 10 mg n = 6, single oral dose): 0
Nasal congestion, treatment-emergent adverse events ([10]; 10 mg n = 6, single oral dose): 0
Oral herpes, treatment-emergent adverse events ([10]; 10 mg n = 6, single oral dose): 0
Viral upper respiratory tract infection, treatment-emergent adverse events ([10]; 10 mg n = 6, single oral dose): 0
Aphthous ulcer, treatment-emergent adverse events ([10]; 30 mg n = 6, single oral dose): 0
Back pain, treatment-emergent adverse events ([10]; 30 mg n = 6, single oral dose): 0
Diarrhea, treatment-emergent adverse events ([10]; 30 mg n = 6, single oral dose): 0
Headache, treatment-emergent adverse events ([10]; 30 mg n = 6, single oral dose): 1
Hypercholesterolaemia, treatment-emergent adverse events ([10]; 30 mg n = 6, single oral dose): 0
Medical device site reaction, treatment-emergent adverse events ([10]; 30 mg n = 6, single oral dose): 1
Musculoskeletal discomfort, treatment-emergent adverse events ([10]; 30 mg n = 6, single oral dose): 0
Nasal congestion, treatment-emergent adverse events ([10]; 30 mg n = 6, single oral dose): 0
Oral herpes, treatment-emergent adverse events ([10]; 30 mg n = 6, single oral dose): 1
Viral upper respiratory tract infection, treatment-emergent adverse events ([10]; 30 mg n = 6, single oral dose): 0
Aphthous ulcer, treatment-emergent adverse events [10, 18]: 0
Back pain, treatment-emergent adverse events [10, 18]: 1
Diarrhea, treatment-emergent adverse events [10, 18]: 2
Headache, treatment-emergent adverse events [10, 18]: 4
Hypercholesterolaemia, treatment-emergent adverse events [10, 18]: 2
Medical device site reaction, treatment-emergent adverse events [10, 18]: 2
Musculoskeletal discomfort, treatment-emergent adverse events [10, 18]: 0
Nasal congestion, treatment-emergent adverse events [10, 18]: 2
Oral herpes, treatment-emergent adverse events [10, 18]: 0
Viral upper respiratory tract infection, treatment-emergent adverse events [10, 18]: 2
Aphthous ulcer, treatment-emergent adverse events [10, 19]: 1
Back pain, treatment-emergent adverse events [10, 19]: 1
Diarrhea, treatment-emergent adverse events [10, 19]: 2
Headache, treatment-emergent adverse events [10, 19]: 0
Hypercholesterolaemia, treatment-emergent adverse events [10, 19]: 0
Medical device site reaction, treatment-emergent adverse events [10, 19]: 2
Musculoskeletal discomfort, treatment-emergent adverse events [10, 19]: 0
Nasal congestion, treatment-emergent adverse events [10, 19]: 0
Oral herpes, treatment-emergent adverse events [10, 19]: 1
Viral upper respiratory tract infection, treatment-emergent adverse events [10, 19]: 2
participants with clinically significant high cholesterol values ([10]; 100 mg fasted group): 2
participants with clinically significant high cholesterol values ([10]; 200 mg fasted group): one
Aphthous ulcer, treatment-emergent adverse events ([10]; 200 mg n = 6, single oral dose): 1
Back pain, treatment-emergent adverse events ([10]; 200 mg n = 6, single oral dose): 1
Diarrhea, treatment-emergent adverse events ([10]; 200 mg n = 6, single oral dose): 0
Headache, treatment-emergent adverse events ([10]; 200 mg n = 6, single oral dose): 0
Hypercholesterolaemia, treatment-emergent adverse events ([10]; 200 mg n = 6, single oral dose): 1
Medical device site reaction, treatment-emergent adverse events ([10]; 200 mg n = 6, single oral dose): 1
Musculoskeletal discomfort, treatment-emergent adverse events ([10]; 200 mg n = 6, single oral dose): 2
Nasal congestion, treatment-emergent adverse events ([10]; 200 mg n = 6, single oral dose): 0
Oral herpes, treatment-emergent adverse events ([10]; 200 mg n = 6, single oral dose): 0
Viral upper respiratory tract infection, treatment-emergent adverse events ([10]; 200 mg n = 6, single oral dose): 0
participants with Grade 2 or higher abnormal cholesterol values ([10]; combined JNJ-61803534 group): Fourteen
participants with TEAEs reasonably related to the study agent ([10]; combined JNJ-61803534 group (diarrhea)): 1
TEAEs leading to death, treatment-emergent severe adverse events, severe TEAEs or TEAEs leading to discontinuation ([10]; in vivo): no
safety and tolerability ([10]; single doses up to and including 200 mg): safe and well-tolerated
activity at 1 µM [11]: 102%
activity at 10 µM [11]: 107%
inhibition at 1 µM [12]: < 10%
inhibition at 10 µM [12]: < 10%
IC50 [13]: > 10000 nM
activity at 1 µM [14]: 91%
activity at 10 µM [14]: 112%
inhibition at 1 µM [15]: < 10%
inhibition at 10 µM [15]: < 10%
activity at 1 µM [16]: 97%
activity at 10 µM [16]: 132%
inhibition at 1 µM [17]: < 10%
inhibition at 10 µM [17]: < 10%
